In experiment [1] the test system is H. glycines second-stage nematodes (J2), races 2 (HG type 1.2.5.7) and 5 (HG type 2.5.7). Kind of experiment: whole plant or invertebrate. As to conditions: for nematocidal activity against races 2 and 5: 24 hours incubation, 0.5 and 1.0 mg/ml, overall statement; for mortality at 500 µg/mL / mortality at 1000 µg/mL: Heterodera glycines, 24 h, read-out: J2 mortality. As to the method: Determination of the nematocidal activity of phenolic compounds was conducted as previously described. Briefly, approximately 400 freshly hatched J2s in 900 μl of water were added to each well of a 24-well Microtest™ tissue culture plate, and 100 μl of the compound test solution was added at concentrations of 5 mg/ml and 10 mg/ml. Therefore, the final concentration of each compound in each suspension is 0.5 mg/ml and 1.0 mg/ml. Control samples received 100 μl of water. Three replicates per concentration were used. The plate was covered with the original solid lid and wrapped with Parafilm®, and samples were kept at 27° C. in an incubator. After 24 hours of incubation, dead and alive J2 nematodes were counted using a stereo microscope Leica M165 FC (×40) to evaluate mortality rates. J2 mortality can be estimated according to the mean percentage of dead J2 in the total number of J2 (alive and dead). Nematodes are considered dead when no movement was observed during 3 seconds of observation. The compounds 3,4-dihydroxybenzoic acid and 4-hydroxybenzaldehyde are commercially available at Sigma-Aldrich, USA.

For experiment [2], the system named is root-knot nematode (Meloidogyne incognita). As to conditions: known from prior reports; cited from earlier work.
Another experiment concerns nematode. As to conditions: general statement; cited from earlier work.

As usually defined, the mortality is the share of the test organisms that died.

For the molecule `O=C(O)c1ccc(O)c(O)c1` [3,4-dihydroxybenzoic acid], in experiment [1], the “nematocidal activity against races 2 and 5” value is on record as “demonstrated nematocidal activity”; the mortality at 500 µg/mL amounted to 19%; the mortality at 1000 µg/mL is 30%. Further, the “nematocidal activity against root-knot nematode” value in experiment [2] is recorded as “showing nematocidal activity”.

For `O=Cc1ccc(O)cc1` [4-hydroxybenzaldehyde], in experiment [1], the “nematocidal activity against races 2 and 5” value was “demonstrated nematocidal activity”; the mortality at 500 µg/mL came out at 68%; the mortality at 1000 µg/mL was determined as 96%.

Consider `O=C(O)c1ccccc1O` [SA, salicylic acid], for which the direct nematocidal activity entry in the experiment with nematode is “no direct nematocidal activity”.
